From the Kinase Knowledgebase extract (Sharma et al. 2016)

Molecular target: PIK3CG (human) (UniProt P48736)
Test: Assessment of PIK3CG Kinase Activity

Chain of PIK3CG (human) (P48736 whole entry, looked up): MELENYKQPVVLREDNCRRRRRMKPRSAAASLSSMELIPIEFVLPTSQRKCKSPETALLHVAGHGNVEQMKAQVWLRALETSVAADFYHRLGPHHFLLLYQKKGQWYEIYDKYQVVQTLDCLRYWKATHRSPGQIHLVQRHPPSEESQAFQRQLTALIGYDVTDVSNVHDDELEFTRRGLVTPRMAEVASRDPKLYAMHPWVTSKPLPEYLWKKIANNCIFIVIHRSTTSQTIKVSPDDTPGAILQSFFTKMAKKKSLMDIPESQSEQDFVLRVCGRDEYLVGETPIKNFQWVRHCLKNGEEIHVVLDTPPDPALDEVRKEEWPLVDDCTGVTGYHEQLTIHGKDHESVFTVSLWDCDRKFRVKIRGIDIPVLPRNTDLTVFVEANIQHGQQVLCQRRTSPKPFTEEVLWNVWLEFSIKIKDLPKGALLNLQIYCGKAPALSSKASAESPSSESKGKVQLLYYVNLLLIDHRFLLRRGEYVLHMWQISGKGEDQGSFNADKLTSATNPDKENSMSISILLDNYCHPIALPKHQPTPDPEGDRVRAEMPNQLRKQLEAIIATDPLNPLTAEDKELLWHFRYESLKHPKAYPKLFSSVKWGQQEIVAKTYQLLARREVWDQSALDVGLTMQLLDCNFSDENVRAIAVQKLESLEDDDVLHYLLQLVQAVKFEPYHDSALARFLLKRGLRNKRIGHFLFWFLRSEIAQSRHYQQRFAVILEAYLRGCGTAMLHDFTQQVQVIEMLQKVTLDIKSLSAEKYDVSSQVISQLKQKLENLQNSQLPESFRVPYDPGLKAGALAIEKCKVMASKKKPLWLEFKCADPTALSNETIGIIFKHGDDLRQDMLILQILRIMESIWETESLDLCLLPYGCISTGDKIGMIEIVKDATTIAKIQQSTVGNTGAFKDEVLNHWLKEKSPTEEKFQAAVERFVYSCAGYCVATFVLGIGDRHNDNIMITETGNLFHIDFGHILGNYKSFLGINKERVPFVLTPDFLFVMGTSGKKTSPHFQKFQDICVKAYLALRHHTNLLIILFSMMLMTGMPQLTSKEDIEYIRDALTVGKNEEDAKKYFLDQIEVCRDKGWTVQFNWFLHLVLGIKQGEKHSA

SMILES | IC50
CC(=O)Nc1nc2c(s1)-c1c(c(C(C)C)nn1-c1ccc(C(=O)N[C@H]3CC[C@H](N4CCCC4)CC3)cc1Cl)CC2 | < 800 nM
CC(=O)Nc1nc2c(s1)-c1nc(N(C)CCN3CCN(C)CC3)ncc1CC2 | < 800 nM
COc1ccc(-n2ncc3c2-c2sc(NC(C)=O)nc2C3)cc1 | < 800 nM
CC(=O)Nc1nc2c(s1)-c1c(c(C)nn1-c1ccc(Cl)cc1)CC2 | < 800 nM
C=CCNC(=O)c1ccc(-n2ncc3c2-c2sc(NC(C)=O)nc2CC3)cc1 | < 800 nM
CN(C)CCNC(=O)Nc1nc2c(s1)-c1c(cnn1-c1ccccc1)C2 | < 800 nM
CC(=O)Nc1nc2c(s1)-c1c(cnn1-c1ccc(C(=O)NC3CCC(NC(=O)c4cccc5ccccc45)CC3)cc1)CC2 (stereo unspecified) | < 800 nM
CC(=O)Nc1nc2c(s1)-c1c(c(-c3ccccc3)nn1-c1ccccc1F)CC2 | < 800 nM
CCCN(CC)C(=O)Cc1ccc(-n2ncc3c2-c2sc(NC(C)=O)nc2CC3)cc1 | < 800 nM
CC(=O)NCCCC[C@H](NC(=O)c1ccc(-n2ncc3c2-c2sc(NC(C)=O)nc2CC3)c(Cl)c1)C(N)=O | < 800 nM
CC(=O)Nc1nc2c(s1)-c1c(cnn1-c1ccc(C(=O)N(C)CC#N)cc1)CC2 | < 800 nM
CC(=O)Nc1nc2c(s1)-c1c(cnn1-c1ccc(C(F)(F)F)cc1)CC2 | < 800 nM
CC(=O)Nc1nc2c(s1)-c1c(cnn1-c1ccc(C(=O)N3CCCC(O)C3)cc1)CC2 (stereo unspecified) | < 800 nM
CC(=O)Nc1nc2c(s1)-c1c(cnn1-c1ccc(S(=O)(=O)N3CCCCC3)cc1)CC2 | < 800 nM
CC(=O)Nc1nc2c(s1)-c1c(cnn1-c1ccc(CC(=O)NCc3cnn(C)c3)cc1)CC2 | < 800 nM
CC(=O)Nc1nc2c(s1)-c1c(cnn1-c1ccc(C(=O)NCCCN(C)C)cc1)CC2 | < 800 nM
CC(=O)Nc1nc2c(s1)-c1c(cnn1-c1ccc(CC(=O)N3CCC(N4CCNC4=O)CC3)cc1)CC2 | < 800 nM
CC(=O)Nc1nc2c(s1)-c1c(cnn1-c1ccc(C(=O)NC3CCN(C)CC3)cc1)CC2 | < 800 nM
O=CNc1nc2c(s1)-c1c(cnn1-c1ccccc1)CC2 | < 800 nM
CC(=O)Nc1nc2c(s1)-c1c(cnn1-c1ccc(CC(=O)NC3CCS(=O)(=O)C3)cc1)CC2 (stereo unspecified) | < 800 nM
CC(=O)Nc1nc2c(s1)-c1c(cnn1-c1ccc(C(=O)N[C@@H](COCc3ccccc3)C(N)=O)cc1Cl)CC2 | < 800 nM
Nc1ncc2c(n1)-c1sc(N)nc1CC2 | < 800 nM
O=C(Nc1nc2c(s1)-c1c(cnn1-c1ccccc1)CC2)N1CCOCC1 | < 800 nM
COCc1nn(-c2ccc(C(=O)N[C@H]3CC[C@@H](N4CCCC4)CC3)cc2Cl)c2c1CCc1nc(NC(C)=O)sc1-2 | < 800 nM

SMILES | IC50
NC(=O)Nc1nc2c(s1)-c1c(cnn1-c1ccccc1)CC2 | < 800 nM
O=C(NCCn1ccnc1)Nc1nc2c(s1)-c1c(cnn1-c1ccccc1Cl)C2 | < 800 nM
C#Cc1nn(-c2ccccc2C(F)(F)F)c2c1CCc1nc(NC(C)=O)sc1-2 | < 800 nM
CC(=O)Nc1nc2c(s1)-c1c(cnn1-c1ccc(S(C)(=O)=O)cc1)C2 | < 800 nM
CC(=O)Nc1nc2c(s1)-c1c(cnn1-c1ccc(C(=O)N3CCC(NC(=O)Cc4ccccc4)CC3)cc1)CC2 | < 800 nM
CC(=O)Nc1nc2c(s1)-c1c(cnn1-c1ccc(C(C)(C)C)cc1)CC2 | < 800 nM
CC(=O)Nc1nc2c(s1)-c1c(cnn1-c1ccc(C(=O)NCc3ccccc3O)cc1)CC2 | < 800 nM
CC(=O)Nc1nc2c(s1)-c1c(cnn1-c1ccc(C(=O)NCc3ccccc3C(N)=O)cc1)CC2 | < 800 nM
CC(=O)Nc1nc2c(s1)-c1c(cnn1-c1ccc(C(=O)N[C@H](C(N)=O)C(C)C)cc1Cl)CC2 | < 800 nM
NC(=O)Nc1nc2c(s1)-c1c(cnn1-c1ccccc1)C2 | < 800 nM
CC(=O)Nc1nc2c(s1)-c1nc(N3CCCC(CN)C3)ncc1CC2 (stereo unspecified) | < 800 nM
CN(C)CCN(C)C(=O)Nc1nc2c(s1)-c1c(cnn1-c1ccccc1)C2 | < 800 nM
CC(=O)Nc1nc2c(s1)-c1c(c(C(=O)N3CCOCC3)nn1-c1ccccc1Cl)CC2 | < 800 nM
CC(=O)Nc1nc2c(s1)-c1c(cnn1-c1ccc(C(=O)N[C@@H](Cc3ccc(O)cc3)C(N)=O)cc1Cl)CC2 | < 800 nM
CC(=O)Nc1nc2c(s1)-c1c(cnn1-c1ccc(C(=O)N[C@H](Cc3ccc(O)cc3)C(N)=O)cc1)CC2 | < 800 nM
CC(=O)Nc1nc2c(s1)-c1c(cnn1-c1ccc(C(=O)N3CCC(N4CCCS4(=O)=O)CC3)cc1)CC2 | < 800 nM
CC(=O)Nc1nc2c(s1)-c1c(cnn1-c1ccc(C(=O)NCCCCCCNC(=O)c3ccccc3)cc1)CC2 | < 800 nM
CCCCn1ncc2c1-c1sc(NC(C)=O)nc1CC2 | < 800 nM
CC(=O)Nc1nc2c(s1)-c1c(cnn1-c1ccc(CC(=O)N3CCC(CO)CC3)cc1)CC2 | < 800 nM
CC(=O)Nc1nc2c(s1)-c1c(c(NC(=O)OC(C)C)nn1-c1ccccc1Cl)CC2 | < 800 nM
CC(=O)Nc1nc2c(s1)-c1c(c(NC(=O)NC(C)C)nn1-c1ccccc1Cl)CC2 | < 800 nM
CC(=O)Nc1nc2c(s1)-c1c(cnn1-c1cc(S(N)(=O)=O)ccc1Cl)CC2 | < 800 nM
CC(=O)Nc1nc2c(s1)-c1nn(-c3ccccc3F)c(-c3ccco3)c1CC2 | < 800 nM
CC(=O)Nc1nc2c(s1)-c1c(cnn1-c1ccc(C(=O)N(C)CC(=O)N3CCOCC3)cc1)CC2 | < 800 nM

SMILES | IC50
CC(=O)Nc1nc2c(s1)-c1c(c(-c3ccco3)nn1-c1ccc(Br)cc1C(F)(F)F)CC2 | < 800 nM
COc1cc(-n2ncc3c2-c2sc(NC(C)=O)nc2CC3)nc(OC)n1 | < 800 nM
CC(=O)Nc1nc2c(s1)-c1nn(C(=O)C(C)C)cc1CC2 | < 800 nM
CCNC(=O)Nc1nc2c(s1)-c1c(cnn1-c1ccccc1)CC2 | < 800 nM
Nc1nc2c(s1)-c1c(cnn1-c1ccccc1)C2 | < 800 nM
CC(=O)Nc1nc2c(s1)-c1nn(C(=O)c3ccco3)cc1CC2 | < 800 nM
CC(=O)Nc1nc2c(s1)-c1c(c(-c3ccccn3)nn1-c1ccccc1Br)CC2 | < 800 nM
CC(=O)Nc1nc2c(s1)-c1c(cnn1-c1ccc(C(=O)N3CCCC3c3ccncc3)cc1)CC2 (stereo unspecified) | < 800 nM
CC(=O)Nc1nc2c(s1)-c1c(cnn1-c1ccc(C(=O)N[C@@H](C(N)=O)[C@H](C)O)cc1Cl)CC2 | < 800 nM
CC(=O)Nc1nc2c(s1)-c1c(cnn1-c1ccc(C(=O)N3CCN(C)CC3)cc1)CC2 | < 800 nM
CCCC(=O)n1ncc2c1-c1sc(NC(C)=O)nc1CC2 | < 800 nM
CCN(CC)CC1CCCCN1C(=O)c1ccc(-n2ncc3c2-c2sc(NC(C)=O)nc2CC3)cc1 (stereo unspecified) | < 800 nM
O=C(NCCN1CCOCC1)Nc1nc2c(s1)-c1c(cnn1-c1ccccc1)CC2 | < 800 nM
CC(=O)Nc1nc2c(s1)-c1c(cnn1-c1ccc(C(=O)N(C)CCO)cc1)CC2 | < 800 nM
CC(=O)Nc1nc2c(s1)-c1c(cnn1-c1ccc(C(=O)N3CCc4ccccc4C3)cc1)CC2 | < 800 nM
CC(=O)Nc1nc2c(s1)-c1c(cnn1-c1ccc(C(=O)NCCn3ccnc3)cc1)CC2 | < 800 nM
CC(=O)Nc1nc2c(s1)-c1c(cnn1-c1ccc(CC(=O)N3CCC(C(N)=O)CC3)cc1)CC2 | < 800 nM
CN(C)C(=O)Nc1nc2c(s1)-c1c(cnn1-c1ccccc1Cl)C2 | < 800 nM
COC(=O)c1nn(-c2ccccc2C(F)(F)F)c2c1CCc1nc(NC(C)=O)sc1-2 | < 800 nM
CC(=O)Nc1nc2c(s1)-c1c(c(-c3ccoc3)nn1-c1ccc(Cl)cc1)CC2 | < 800 nM
CC(=O)Nc1nc2c(s1)-c1c(cnn1-c1ccc(C(=O)N[C@H]3CC[C@H](N4CCCC4)CC3)cc1)CC2 | < 800 nM
CC(=O)Nc1nc2c(s1)-c1nc(N3CCC4(CN(C)C4)C3)ncc1CC2 | < 800 nM

The next lines start with the values.

IC50 | SMILES
< 800 nM | CC(=O)Nc1nc2c(s1)-c1c(c(-c3ccccn3)nn1-c1ccccc1)CC2
< 800 nM | CC(=O)Nc1nc2c(s1)-c1c(c(C(=O)O)nn1-c1ccccc1Cl)CC2
< 800 nM | CC(=O)Nc1nc2c(s1)-c1c(c([C@H]3CCCO3)nn1-c1ccccc1Cl)CC2
< 800 nM | CC(=O)Nc1nc2c(s1)-c1nc(-c3ccccc3)[nH]c(=O)c1CC2
< 800 nM | CC(=O)Nc1nc2c(s1)-c1c(c(C(=O)N(C)C)nn1-c1ccccc1Cl)CC2
< 800 nM | CN(C)C(=O)Nc1nc2c(s1)-c1nc(-c3ccccc3)ncc1CC2
< 800 nM | CC(=O)Nc1nc2c(s1)-c1nc(Cc3ccccc3)ncc1CC2
< 800 nM | CCC(=O)Nc1nc2c(s1)-c1nc(-c3ccccc3)ncc1CC2
< 800 nM | CC(=O)Nc1nc2c(s1)-c1c(cnn1-c1ccc3ncsc3c1)CC2
< 800 nM | CC(=O)Nc1nc2c(s1)-c1nc(N(C)CCN(C)C)ncc1CC2
< 800 nM | CC(=O)Nc1nc2c(s1)-c1nc(-c3ccccn3)ncc1CC2
< 800 nM | O=CNc1nc2c(s1)-c1nc(-c3ccccc3)ncc1CC2
< 800 nM | O=C(Nc1nc2c(s1)-c1nc(-c3ccccc3)ncc1CC2)N1CCCC1
< 800 nM | CNc1ncc2c(n1)-c1sc(NC(C)=O)nc1CC2
< 800 nM | CC(=O)Nc1nc2c(s1)-c1nn(-c3ccccc3C)c(-c3cn(C)cn3)c1CC2
< 800 nM | CC(=O)Nc1nc2c(s1)-c1c(cnn1-c1ccc3ccccc3c1)CC2

IC50 | SMILES
< 800 nM | CC(=O)Nc1nc2c(s1)-c1nc(N(C)C)ncc1CC2
< 800 nM | CC(=O)Nc1nc2c(s1)-c1nc(-c3ccccc3)ncc1C2
< 800 nM | COc1ccccc1-c1ncc2c(n1)-c1sc(NC(N)=O)nc1CC2
< 800 nM | CC(=O)Nc1nc2c(s1)-c1nc(-c3cccc(Cl)c3)ncc1CC2
< 800 nM | CC(=O)Nc1nc2c(s1)-c1nc(-c3ccc(C(=O)N(C)C)cc3)ncc1CC2
< 800 nM | COCc1nn(-c2ccccc2Cl)c2c1CCc1nc(NC(C)=O)sc1-2
< 800 nM | CC(=O)Nc1nc2c(s1)-c1c(c(N)nn1-c1ccccc1)CC2
< 800 nM | CC(=O)Nc1nc2c(s1)-c1c(cnn1-c1cccc(C)c1)CC2
< 800 nM | CC(=O)Nc1nc2c(s1)-c1nc(-c3ccccc3Cl)ncc1CC2
< 800 nM | CC(=O)Nc1nc2c(s1)-c1c(cnn1-c1cccc(F)c1)CC2
< 800 nM | CC(=O)Nc1nc2c(s1)-c1c(c(C(=O)O)nn1-c1ccccc1)CC2
< 800 nM | Nc1nc2c(s1)-c1nc(-c3ccccc3)ncc1CC2
< 800 nM | CC(=O)Nc1nc2c(s1)-c1nc(C(F)(F)F)ncc1CC2
< 800 nM | CN1CCN(C(=O)Nc2nc3c(s2)-c2nc(-c4ccccc4)ncc2CC3)CC1
< 800 nM | CC(=O)Nc1nc2c(s1)-c1nn(-c3ccccc3Cl)c(-c3ccco3)c1CC2
